Here are results for nine compounds from patent EP0588622B1, “Bleach composition” (UNILEVER PLC, priority 1992, dated 1994).

Where two headings read alike, the source gives them in different places.

By pKa is commonly meant the pH at which an ionisable group is half protonated. Low values mean a stronger acid or weaker base, high ones a weaker acid or stronger base.

For series [1] the following is noted: peroxyacid solution 0.000525 moles/l plus EDTA, 22-24°C, 30 minutes.
Series [2] can be described thus: pKa determination by sodium hydroxide titration of peroxyacid solution.
Series [3] is described as follows: Stain bleaching, visual assessment of stained cloths after tergotometer wash (Example V). The settings on record: for Ranking: score 1 smallest, 4 greatest cleaning benefit, peroxyacid 9.2x10^-4 mol l^-1, 40°C, 30 minutes.
A short description of series [4]: Dye damage in tergotometer wash at pH 9 (Example VII), nylon 6,6. The conditions noted are these: nylon 6,6 dyed with CI disperse 14; pH 9, 40°C, 30 minutes, peroxyacid 9.2x10^-4 mole/l.
Series [5] can be described thus: Dye damage in tergotometer wash at pH 9 (Example VII), triacetate. The conditions noted are these: triacetate dyed with CI disperse 14; pH 9, 40°C, 30 minutes, peroxyacid 9.2x10^-4 mole/l.
Series [6] can be described thus: Dye damage in tergotometer wash at pH 9 (Example VII), diacetate. The conditions noted are these: diacetate dyed with CI disperse 14; pH 9, 40°C, 30 minutes, peroxyacid 9.2x10^-4 mole/l.
The nature of series [7]: physchem.
Series [8] can be described thus: Dye damage in tergotometer wash with detergent base at pH 6 to 10 (Example III). The settings on record: peroxyacid 9.2x10^-4 mole/l, detergent base 4 g/l, 40°C, 30 minutes.
Series [9] in a line: Tea stain bleaching, difference in reflectance at 460 nm before and after washing (Example VI). The settings on record: 40°C, 30 minutes. As to the method: The stain bleaching performance was measured by determining the difference ([…]) in %reflectance of cloths at 460 nm before and after washing. […] This was carried out in a tergotometer at 40°C, washing for 30 minutes. Cloths were washed in 450 ml 18°FH water with 1.8 g NSPA base powder and peroxyacid included at 9.2x10^-4 mol l^-1. Two series of experiments were carried out; one at pH 6 where the peracid is largely in its undissociated form and one above the peracid pKa, at pH 9. A stained piece of fabric measuring 8x8 cm was cut into four such that each quarter would be washed under one of each of the four experimental conditions. The method as in example V was used in determining the tea stain bleaching effect of sterically hindered hydrophobic peroxyacids, the differences being that 3 replicates were used, the reflectance was measured before and after washing, tests were done over a pH range of from 6 to 10 and 4 g/l NSPA base powder was used.

For `CCCCc1ccc(C(=O)OO)cc1` [p-bu^n perbenzoic, reference compound], the “% dye damage” value in [1] is given as 39.6%. Besides, in [2], the pKa was 8.
On the same counts, the results for `O=C(OO)C1CC2CCC1C2` (stereo not drawn) [Norbornane-endo-2-Percarboxylic] are 7.0% and 8.15.
In the case of `O=C(OO)C1CC2CCC1C2` (centres unmarked) [NBC, Norbornane 2-peroxyacid], the Ranking in series [3] (Washes at pH 9) and in series [3] (Washes pH 6) was 2 in each case.
On to `CC(CC(=O)OO)CC(C)(C)C` (centres unmarked) [iso-pernonanoic, peroxy-3,5,5-trimethylhexanoic acid], for which the figures for the “% dye damage” value in series [4], in series [5] and in [6] were 11%, 23% and 25%, respectively. Also, the pKa in series [2] is 8.1.
For the compound `CC(C)(C)c1ccc(C(=O)OO)cc1` [p-bu^t perbenzoic, p-t-butylperbenzoic acid], in series [1], the “% dye damage” value is on record as 19.6%. Besides, the pKa in [7] came to 7.98.
For the compound `CC1C2CCC(C2)C1C(=O)OO` (stereo not drawn) [Trans-3-Methyl norbornane-endo-2-percaboxylic], the “% dye damage” value in series [1] was determined as 8.2%. In series [2], this compound had a pKa of 8.15.
Regarding `CCCCCCCCC(=O)OO` [n-pernonanoic, n-pernonanoic acid], the “% DYE DAMAGE” value in [8] (pH 6) was determined as 70.4%; in series [8] (pH 7) it was 67.9%; in series [8] (pH 8), 63.7%; in series [8] (pH 9) it was 37.2%; in series [8] (pH 10), 15.0%. Moreover, the results for the “% dye damage” value in series [4], in [5] and in series [6] were 52%, 85% and 82%, respectively. The compound further gave a pKa in [2] of 8.1.
Consider `CC1(C(=O)OO)CC2CCC1C2` (stereo not drawn) [2 methylnorbornane-endo-2-percaboxylic], for which, in series [1], the “% dye damage” value turned out to be 5.6%. The pKa in series [2] was found to be 8.2.
Take `O=C(OO)C12CC3CC(CC(C3)C1)C2` [Peradamantoic, Peradamantoic acid]: the Ranking in series [3] (Washes at pH 9) and in [3] (Washes pH 6) was 4 in each case. Moreover, in series [3] (black biro stain, both at pH 6 and 9), the “removal of the stain” value is “almost complete removal of the stain”. Moreover, the “TEA STAIN BLEACHING ΔR460NM” value in series [9] (pH 6, 4 g/l NSPA base powder) is on record as 13.2; in [9] (pH 7, 4 g/l NSPA base powder) it was 16.9; in series [9] (pH 8, 4 g/l NSPA base powder), 17.3; in series [9] (pH 9, 4 g/l NSPA base powder), 13.1; in series [9] (pH 10, 4 g/l NSPA base powder), 3.6. In addition, the “% dye damage” value in series [1] was 11.2%. For the same compound, in [2], the pKa was found to be 7.95.
